Measurements from patent US20220062299A1, “USE OF GLUCOCORTICOID STEROIDS IN PREVENTING AND TREATING CONDITIONS OF MUSCLE WASTING, AGING AND METABOLIC DISORDER” (NORTHWESTERN UNIVERSITY, priority 2018, published 2022).

System: BCKDHA and mTOR pathway members in mdx muscle
Test: Protein analysis of BCKDHA and mTOR pathway members in mdx muscle
Type: in vivo, mouse
Details: weekly prednisone
Experimental: Animal handling and steroid regimens. Mice were housed in a pathogen-free dedicated vivarium in accordance with Institutional Animal Care and Use Committee (IACUC) guidelines. Euthanasia was performed through carbon dioxide inhalation followed by cervical dislocation and heart removal. All methods using living animals in this study were performed in ethical accordance with the American Veterinary Medical Association (AVMA) and under protocols fully approved by both the Institutional Animal Care and Use Committee (IACUC) at Northwestern University Feinberg School of Medicine (protocol number ISO00000761). Consistent with the ethical approvals, all efforts were made to minimize suffering. Mice were fed ad libitum with Mouse Breeder Sterilizable Diet (#7904; Harlan Teklad, Indianapolis, Ind.) and maintained on a 12-hour light/dark cycle. mdx mice from the DBA/2J background were obtained from the Jackson Laboratory (Bar Harbor, Me.; stock #013141) and interbred. Male mice were used for reported experiments. Age at start was approximately 6 months for short-term experiments, approximately 6 weeks for long-term experiments. Dysferlin-null (Dysf-null) mice from the 129T2/SvEmsJ background were previously characterized (Demonbreun et al., 2011; Demonbreun et al., 2014). Age at start was approximately 9 months for long-term experiments. For experiments with Dysf-null and wildtype mice, both females and males (approximately 1:1 ratio) were randomized in treatment groups. […] Dosing was based on weekly weight measurements (1 mg/kg body weight, (Sali et al., 2012)) in 100 μl total PBS volume per dose. Mice were injected daily via intraperitoneal injection at 7 AM. On injection days, stock solutions stored at −20° C. were diluted into sterile Eppendorf tubes containing sterile phosphate buffered saline (PBS) (#14190; Thermo Fisher, Waltham, Mass.). Puromycin (cat #A1113803, Thermo Scientific, Waltham, Mass.) was administered i.p. as 0.040 μmol/body g, and tissues were snap-frozen 30 minutes after injection. Sterile BD Micro-Fine IV Insulin Syringes (#14-829-1A; Fisher Scientific, Waltham, Mass.) were used to inject the intraperitoneal cavity of non-sedated animals. All animal analyses both during treatment and at endpoint were conducted blinded to treatment groups.
Protein analysis. Protein lysates from approximately 50 mg muscle tissue were obtained with homogenization at the TissueLyser II (cat #85300; Qiagen, Hilden, Germany) for two rounds of 2 minutes each with 2 minutes pause in between, using sample plates chilled at −20° C. o/n and one stainless 5 mm bead per sample (cat #69989; Qiagen, Hilden, Germany). […]

[1] = mdx muscle, 12-week-long treatment

C[C@]12C=CC(=O)C=C1CC[C@@H]1[C@@H]2C(=O)C[C@@]2(C)[C@H]1CC[C@]2(O)C(=O)CO [prednisone, Prednisone]
levels of mTOR-bound RagC and phosphorylation of S6K and 4EBP1 [1]: increased | protein translation and muscle mass (puromycin incorporation and myofiber size) [1]: increased | phosphorylation of BCKDHA (quadriceps muscle of mdx mice): reduced | total levels of branched chain keto acid dehydrogenase (BCKDHA) (quadriceps muscle of mdx mice): increased
